Measured values as given in ChEMBL document CHEMBL1201862, “PubChem BioAssay data set” (2004).
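Interpolation was linear, between the two tested concentrations surrounding the appropriate level; five concentrations were tested over 48 hours in 96-well plates. Abbreviation: GI50, concentration required for 50% inhibition of growth.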 The source made the active and inactive calls. Cut-off read from the data, not from the text of the source: active = GI50 up to about 1.1 µM and inactive = higher.

Tests used:
Assay in all cases: NCI tumour cell line growth inhibition, 48 h
786-0 = system: 786-0
A498 = system: A498
A549 = system: A549
ACHN = system: ACHN
BT-549 = system: BT-549
CAKI-1 = system: CAKI-1
CCRF-CEM = system: CCRF-CEM
COLO 205 = system: COLO 205
DU-145 = system: DU-145
EKVX = system: EKVX
HCT-116 = system: HCT-116
HCT-15 = system: HCT-15
HL-60 = system: HL-60
HOP-62 = system: HOP-62
HOP-92 = system: HOP-92
HT-29 = system: HT-29
Hs-578T = system: Hs-578T
IGROV-1 = system: IGROV-1
K562 = system: K562
KM12 = system: KM12
LOX IMVI = system: LOX IMVI
M14 = system: M14
MCF7 = system: MCF7
MDA-MB-231 = system: MDA-MB-231
MDA-MB-435 = system: MDA-MB-435
MDA-N = system: MDA-N
MOLT-4 = system: MOLT-4
Malme-3M = system: Malme-3M
NCI-H226 = system: NCI-H226
NCI-H23 = system: NCI-H23
NCI-H460 = system: NCI-H460
NCI-H522 = system: NCI-H522
NCI/ADR-RES = system: NCI/ADR-RES
OVCAR-3 = system: OVCAR-3
OVCAR-4 = system: OVCAR-4
OVCAR-5 = system: OVCAR-5
OVCAR-8 = system: OVCAR-8
PC-3 = system: PC-3
RPMI-8226 = system: RPMI-8226
RXF 393 = system: RXF 393
SF-268 = system: SF-268
SF-295 = system: SF-295
SF-539 = system: SF-539
SK-MEL-28 = system: SK-MEL-28
SK-MEL-2 = system: SK-MEL-2
SK-MEL-5 = system: SK-MEL-5
SK-OV-3 = system: SK-OV-3
SN12C = system: SN12C
SNB-19 = system: SNB-19
SR = system: SR
SW-620 = system: SW-620
T47D = system: T47D
TK-10 = system: TK-10
U-251 = system: U-251
UACC-257 = system: UACC-257
UACC-62 = system: UACC-62
UO-31 = system: UO-31
SNB-75 = system: SNB-75

For `COc1cccc(-c2ccc3c4c2O[C@H]2C(=O)CC[C@@]5(O)[C@@H](C3)N(CC3CC3)CC[C@]425)c1`, the GI50 (786-0) was 16.1 µM (inactive), the GI50 (A498) was 18.7 µM (inactive) and the GI50 (A549) was 18.2 µM (inactive). For the same compound, the GI50 (ACHN) was 18.1 µM (inactive), the GI50 (BT-549) was 18.4 µM (inactive) and the GI50 (CAKI-1) was 16.6 µM (inactive). For the same compound, the GI50 (CCRF-CEM) was 7.29 µM (inactive), the GI50 (COLO 205) was 13 µM (inactive) and the GI50 (DU-145) was 24.4 µM (inactive). For the same compound, the GI50 (EKVX) was 17.1 µM (inactive), the GI50 (HCT-116) was 17.5 µM (inactive) and the GI50 (HCT-15) was 13.6 µM. The GI50 (HL-60) was 19.1 µM (inactive), the GI50 (HOP-62) was 19.5 µM (inactive) and the GI50 (HOP-92) was 15.3 µM (inactive). The GI50 (HT-29) was 11.6 µM (inactive), the GI50 (Hs-578T) was 12.3 µM (inactive) and the GI50 (IGROV-1) was 21.8 µM (inactive). The GI50 (K562) was 13.5 µM (inactive), the GI50 (KM12) was 17.7 µM (inactive) and the GI50 (LOX IMVI) was 16.3 µM (inactive). For the same compound, the GI50 (M14) was 14.5 µM (inactive), the GI50 (MCF7) was 16 µM (inactive) and the GI50 (MDA-MB-231) was 15.8 µM (inactive). For the same compound, the GI50 (MDA-MB-435) was 12.9 µM (inactive), the GI50 (MDA-N) was 18.9 µM (inactive) and the GI50 (MOLT-4) was 10.2 µM (inactive). For the same compound, the GI50 (Malme-3M) was 20.9 µM (inactive), the GI50 (NCI-H226) was 11.6 µM (inactive) and the GI50 (NCI-H23) was 24.9 µM (inactive). For the same compound, the GI50 (NCI-H460) was 28.9 µM (inactive), the GI50 (NCI-H522) was 17.7 µM (inactive) and the GI50 (NCI/ADR-RES) was 19.4 µM (inactive). The GI50 (OVCAR-3) was 14.4 µM (inactive), the GI50 (OVCAR-4) was 15.1 µM (inactive) and the GI50 (OVCAR-5) was 17.9 µM (inactive). For the same compound, the GI50 (OVCAR-8) was 18.5 µM (inactive), the GI50 (PC-3) was 13.4 µM (inactive) and the GI50 (RPMI-8226) was 12.6 µM (inactive). For the same compound, the GI50 (RXF 393) was 8.53 µM (inactive), the GI50 (SF-268) was 20.8 µM (inactive) and the GI50 (SF-295) was 18.4 µM (inactive). The GI50 (SF-539) was 14.7 µM (inactive), the GI50 (SK-MEL-28) was 27.4 µM (inactive) and the GI50 (SK-MEL-2) was 19 µM (inactive). For the same compound, the GI50 (SK-MEL-5) was 14.8 µM (inactive), the GI50 (SK-OV-3) was 18.7 µM (inactive) and the GI50 (SN12C) was 18.5 µM (inactive). The GI50 (SNB-19) was 20.7 µM (inactive), the GI50 (SR) was 10.3 µM (inactive) and the GI50 (SW-620) was 12.2 µM (inactive). For the same compound, the GI50 (T47D) was 18.4 µM (inactive), the GI50 (TK-10) was 17.3 µM (inactive) and the GI50 (U-251) was 16.2 µM (inactive). For the same compound, the GI50 (UACC-257) was 25.9 µM (inactive), the GI50 (UACC-62) was 17.1 µM (inactive) and the GI50 (UO-31) was 14.5 µM (inactive).

`C/C(=C/CC[C@](C)(OC1OC(CO)C(O)C(O)C1O)[C@H]1CC[C@]2(C)[C@@H]1CC[C@@H]1[C@@]3(C)CC[C@H](O)C(C)(C)[C@@H]3C[C@H](O)[C@]12C)CO` (some centres undefined) was tested, and the GI50 (786-0) was 12.6 µM (inactive), the GI50 (A498) was 60 µM (inactive) and the GI50 (A549) was 39.5 µM (inactive). The GI50 (ACHN) was 40.6 µM (inactive), the GI50 (BT-549) was 12.5 µM (inactive) and the GI50 (CAKI-1) was 31.7 µM (inactive). For the same compound, the GI50 (CCRF-CEM) was 27.9 µM (inactive), the GI50 (COLO 205) was 21.3 µM (inactive) and the GI50 (DU-145) was 85.7 µM (inactive). The GI50 (EKVX) was 60.8 µM (inactive), the GI50 (HCT-116) was 18.2 µM (inactive) and the GI50 (HCT-15) was 18.1 µM. For the same compound, the GI50 (HL-60) was 16.5 µM (inactive), the GI50 (HOP-62) was 26.3 µM (inactive) and the GI50 (HOP-92) was 27.4 µM (inactive). The GI50 (HT-29) was 11.6 µM (inactive), the GI50 (Hs-578T) was 16.2 µM (inactive) and the GI50 (IGROV-1) was 38 µM (inactive). The GI50 (K562) was 13.4 µM (inactive), the GI50 (KM12) was 22.7 µM (inactive) and the GI50 (LOX IMVI) was 18.1 µM (inactive). The GI50 (M14) was 37.5 µM (inactive), the GI50 (MCF7) was 34.8 µM (inactive) and the GI50 (MDA-MB-231) was 31.3 µM (inactive). The GI50 (MDA-MB-435) was 36 µM (inactive), the GI50 (MDA-N) was 24.2 µM (inactive) and the GI50 (MOLT-4) was 12.2 µM (inactive). For the same compound, the GI50 (Malme-3M) was 21.6 µM (inactive), the GI50 (NCI-H226) was 26.8 µM (inactive) and the GI50 (NCI-H23) was 45.1 µM (inactive). The GI50 (NCI-H460) was 16.8 µM (inactive), the GI50 (NCI-H522) was 17.9 µM (inactive) and the GI50 (NCI/ADR-RES) was 47.4 µM (inactive). The GI50 (OVCAR-3) was 24.2 µM (inactive), the GI50 (OVCAR-4) was 51.9 µM (inactive) and the GI50 (OVCAR-5) was 49.8 µM (inactive). For the same compound, the GI50 (OVCAR-8) was 33.3 µM (inactive), the GI50 (PC-3) was 31.5 µM (inactive) and the GI50 (RPMI-8226) was 5.4 µM (inactive). For the same compound, the GI50 (RXF 393) was 3.46 µM (inactive), the GI50 (SF-268) was 21.8 µM (inactive) and the GI50 (SF-295) was 14.8 µM (inactive). The GI50 (SF-539) was 10.4 µM (inactive), the GI50 (SK-MEL-28) was 18.2 µM (inactive) and the GI50 (SK-MEL-5) was 18.2 µM (inactive). For the same compound, the GI50 (SK-OV-3) was 21.9 µM (inactive), the GI50 (SN12C) was 22 µM (inactive) and the GI50 (SNB-19) was 22 µM (inactive). The GI50 (SNB-75) was 8.43 µM (inactive), the GI50 (SR) was 22.2 µM (inactive) and the GI50 (SW-620) was 27.4 µM (inactive). For the same compound, the GI50 (T47D) was 16.9 µM (inactive), the GI50 (TK-10) was 55.7 µM (inactive) and the GI50 (U-251) was 13.6 µM (inactive). The GI50 (UACC-257) was 22.6 µM (inactive), the GI50 (UACC-62) was 19.1 µM (inactive) and the GI50 (UO-31) was 37.9 µM (inactive).
